Results published in PubChem BioAssay (NCI).
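Assay format: 96-well plates, 48-hour exposure. GI50 marks 50% less growth. TGI marks complete inhibition of growth.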

How the values were obtained:
Experiment in all cases: inhibition of tumour cell growth, NCI panel, 48 h
[1] = test system: EKVX NSCLC
[2] = test system: CAKI-1 renal
[3] = test system: UACC-62 melanoma
[4] = test system: SF-539 CNS
[5] = test system: U251 CNS
[6] = test system: SNB-75 CNS
[7] = test system: HCT-15 colon
[8] = test system: K-562 leukemia
[9] = test system: OVCAR-3 ovarian
[10] = test system: MCF7 breast

SMILES | TGI [1] [µM] | TGI [2] [µM] | TGI [3] [µM] | TGI [4] [µM] | TGI [5] [µM] | TGI [6] [µM] | TGI [7] [µM] | TGI [8] [µM] | TGI [9] [µM] | GI50 [2] [µM] | GI50 [3] [µM] | GI50 [4] [µM] | GI50 [5] [µM] | GI50 [6] [µM] | GI50 [7] [µM] | GI50 [8] [µM] | GI50 [9] [µM] | GI50 [1] [µM] | GI50 [10] [µM] | TGI [10] [µM]
CC(=O)OC1CCn2nnc(CO)c21 (stereo unspecified) | > 100 | > 100 | > 100 | > 100 | > 100 | > 100 | > 100 | > 100 | > 100 | – | – | – | – | – | – | – | – | – | – | –
COc1ccc2c3c([nH]c2c1[N+](=O)[O-])C(C)N(Cc1ccc([N+](=O)[O-])cc1)CC3 (stereo unspecified) | > 100 | 32.5 | 52.4 | > 100 | 46.9 | – | 54.9 | 77.1 | 64.7 | – | – | – | – | – | – | – | – | – | – | –
CN1CC(=O)N(C)c2ncn(Cc3ccccc3)c2C1=O | > 100 | – | > 100 | > 100 | > 100 | > 100 | > 100 | > 100 | > 100 | – | – | – | – | – | – | – | – | – | – | –
COc1ccc(C(=O)C(C(=O)CC(=O)Nc2cccc(C(F)(F)F)c2)c2ccc(OC)cc2)cc1 (stereo unspecified) | > 100 | > 100 | > 100 | > 100 | > 100 | 85.5 | > 100 | > 100 | > 100 | – | – | – | – | – | – | – | – | – | – | –
COc1ccc(-c2cc(=O)c3ccccc3o2)cc1N | > 100 | > 100 | > 100 | > 100 | > 100 | 93.2 | > 100 | > 100 | > 100 | – | – | – | – | – | – | – | – | – | – | –
O=C(O)NC(c1ccccc1)C(NC(=O)c1ccccc1)c1ccccc1 (stereo unspecified) | > 100 | > 100 | > 100 | > 100 | > 100 | > 100 | > 100 | > 100 | > 100 | – | – | – | – | – | – | – | – | – | – | –
COc1cc(OC)c(SSCCCCS(=O)O)c(OC)c1 | 31.3 | – | 27.9 | 29.5 | 27.9 | 25.4 | 34.2 | 89.3 | 28.6 | – | – | – | – | – | – | – | – | – | – | –
CC(=O)c1cccc(C)c1C(=O)O | > 100 | > 100 | > 100 | – | > 100 | > 100 | > 100 | > 100 | > 100 | – | – | – | – | – | – | – | – | – | – | –
COc1ccccc1C(O)(c1ccccc1)C(O)(c1ccccc1)c1ccccc1OC (stereo unspecified) | > 100 | – | > 100 | > 100 | > 100 | > 100 | > 100 | > 100 | > 100 | – | – | – | – | – | – | – | – | – | – | –
CCN(CC)CCCNC(=O)C1COc2cc(-c3cc(=O)c4ccccc4o3)ccc2O1 (stereo unspecified) | > 100 | > 100 | > 100 | 38.9 | > 100 | > 100 | > 100 | > 100 | > 100 | – | – | – | – | – | – | – | – | – | – | –
CC1=C[C@]2(O)C(=O)[C@H](C)C[C@H]3[C@@H](CC[C@@](C)(O)/C=C\2C1=O)C3(C)C | > 100 | 55.4 | 30.6 | 46.8 | 52.7 | > 100 | 32.4 | > 100 | 38.1 | – | – | – | – | – | – | – | – | – | – | –
COc1ccc(/C(=N\NC(=O)C(=O)NN)C(c2ccc(OC)cc2)C2(O)C(=O)Nc3ccccc32)cc1 (stereo unspecified) | > 100 | > 100 | > 100 | > 100 | > 100 | > 100 | > 100 | > 100 | > 100 | – | – | – | – | – | – | – | – | – | – | –
CC(=O)[CH-]C(=O)c1ccccc1.CC(=O)[CH-]C(=O)c1ccccc1.CC(C)CCCC(C)[C@H]1CCC2[C@@H]3CC=C4C[C@@H]([O-])CC[C@]4(C)C3CC[C@@]21C.CC(C)CCCC(C)[C@H]1CCC2[C@@H]3CC=C4C[C@@H]([O-])CC[C@]4(C)C3CC[C@@]21C.[Ti+4] (stereo partly specified) | – | > 100 | > 100 | > 100 | > 100 | > 100 | > 100 | > 100 | > 100 | > 100 | > 100 | > 100 | > 100 | > 100 | > 100 | > 100 | > 100 | – | – | –
Cn1nc(-c2ccccc2)c(C(=O)/C=C/c2ccc(Cl)cc2)c(N2CCCCC2)c1=O | 15.3 | 3.94 | 5.82 | 2.98 | 3.82 | – | 15 | 5.39 | – | – | – | – | – | – | – | – | – | – | – | –
N#CC1=C(N)Oc2c(ccc3ccccc23)C1c1ccccc1 (stereo unspecified) | 20.1 | 12.6 | 16 | 0.158 | 15.1 | – | 10.7 | 22.6 | 2.2 | 0.0283 | 0.0567 | 0.0311 | 0.0454 | – | 0.0478 | 0.0322 | 0.0357 | 0.315 | 0.0393 | 15.6
CC(=O)CC(N)=O | > 100 | > 100 | > 100 | > 100 | > 100 | > 100 | > 100 | > 100 | > 100 | – | – | – | – | – | – | – | – | – | – | –

SMILES | TGI [1] [µM] | TGI [2] [µM] | TGI [3] [µM] | TGI [4] [µM] | TGI [5] [µM] | TGI [6] [µM] | TGI [7] [µM] | TGI [8] [µM] | TGI [9] [µM] | GI50 [2] [µM] | GI50 [3] [µM] | GI50 [4] [µM] | GI50 [5] [µM] | GI50 [6] [µM] | GI50 [7] [µM] | GI50 [8] [µM] | GI50 [9] [µM] | GI50 [1] [µM] | GI50 [10] [µM] | TGI [10] [µM]
O=C(Nc1ccc(Cl)cc1Cl)C1C(=O)C(=O)N(c2ccc(Cl)cc2Cl)C1=O (stereo unspecified) | > 100 | > 100 | > 100 | > 100 | > 100 | > 100 | > 100 | – | > 100 | – | – | – | – | – | – | – | – | – | – | –
CCOC(=O)Cc1ccc2c(c1O)C(=O)c1c(ccc(CC(=O)OCC)c1O)C2=O | > 100 | – | > 100 | > 100 | > 100 | > 100 | – | > 100 | > 100 | – | – | – | – | – | – | – | – | – | – | –
CC1=C(C(=O)Nc2cc(=O)n(C)c(=O)n2C)C(c2cccc([N+](=O)[O-])c2)C(C(=O)Nc2cc(=O)n(C)c(=O)n2C)=C(C)N1 | > 100 | > 100 | – | 61.7 | > 100 | 99.5 | – | > 100 | > 100 | – | – | – | – | – | – | – | – | – | – | –
CC(C)(C)CC(C)(C)c1cc2c(O)c(c1)Cc1cc(C(C)(C)CC(C)(C)C)cc(c1O)Cc1cc(C(C)(C)CC(C)(C)C)cc(c1O)Cc1cc(C(C)(C)CC(C)(C)C)cc(c1O)Cc1cc(C(C)(C)CC(C)(C)C)cc(c1O)C2 | > 100 | – | > 100 | > 100 | > 100 | > 100 | > 100 | > 100 | > 100 | – | – | – | – | – | – | – | – | – | – | –
C=C(C#N)C1OCC2OC(C)(C)OC21 (stereo unspecified) | 60 | 49.1 | 31.9 | 30 | > 100 | 35.9 | 35.3 | 72 | 46 | – | – | – | – | – | – | – | – | – | – | –
CCOc1ccc(N=Cc2ccc3cc(C)ccc3n2)cc1 | > 100 | > 100 | > 100 | > 100 | > 100 | > 100 | > 100 | 69.8 | > 100 | – | – | – | – | – | – | – | – | – | – | –
Cc1ccc(NC2=C(Cl)C(=O)N(Cc3ccc(Cl)cc3)C2=O)cc1O | – | 18 | 39.4 | 16.2 | > 100 | – | – | > 100 | 38.5 | 2.79 | 17.5 | 3.1 | 4.88 | – | – | 61.8 | 8.88 | – | 6.73 | 27.5
Cc1cc(-c2nc3sccn3c2/C=N/N=C(N)N)c(C)s1 | 23.4 | – | 28.2 | 28.5 | 32.9 | 30.2 | 30 | 39.1 | 26 | – | 14.9 | 14.3 | 18 | 15 | 16.4 | 15.1 | 13.2 | 10.5 | – | –
O=C(CCc1nnc2s/c(=C\c3ccc(Cl)c(Cl)c3)c(=O)n12)Nc1ccc(Cl)c(Cl)c1 | > 100 | > 100 | > 100 | > 100 | > 100 | > 100 | > 100 | > 100 | > 100 | – | – | – | – | – | – | – | – | – | – | –
O=C(O)Cc1cc(=O)[nH]c2c1/C(=N/O)CCC2 | > 100 | – | – | > 100 | > 100 | – | > 100 | > 100 | > 100 | – | – | – | – | – | – | – | – | – | – | –
NC1CCC(Nc2nc(NCc3ccc(-c4ccccc4O)nc3)c3ncn(C4CCCC4)c3n2)CC1 (stereo unspecified) | 0.474 | 2.2 | 0.0593 | 0.267 | 0.321 | 0.0356 | 1.14 | – | 0.0899 | 0.38 | < 0.0174 | 0.0625 | 0.0294 | 0.0121 | 0.21 | – | 0.0288 | 0.0291 | – | –
C#CCOCn1cnc2c(Sc3c([N+](=O)[O-])ncn3C)ncnc21 | > 100 | > 100 | > 100 | – | > 100 | 72.7 | > 100 | > 100 | > 100 | – | – | – | – | – | – | – | – | – | – | –
C[C@]12CCC(=O)C(O)=C1CC[C@@H]1C2CC[C@]2(C)NC(=O)CCC12 (stereo partly specified) | > 100 | > 100 | > 100 | > 100 | > 100 | > 100 | > 100 | > 100 | > 100 | – | – | – | – | – | – | – | – | – | – | –
COC(=O)C1=C(O)c2cc(-c3ccccc3)c(-c3ccccc3)c(C#N)c2NC(=O)C1 | > 100 | 85.8 | > 100 | > 100 | > 100 | 93.3 | > 100 | > 100 | > 100 | – | – | – | – | – | – | – | – | – | – | –
O=C1O[C@H](c2ccccc2)[C@@H]2CC3(CCN12)OCCO3 | > 100 | > 100 | > 100 | > 100 | > 100 | – | > 100 | > 100 | > 100 | – | – | – | – | – | – | – | – | – | – | –
